Test results from patent publication US20240218022A1, “ANTI-VISTA MACROCYCLIC PEPTIDES AND COMPOSITIONS” (BRISTOL-MYERS SQUIBB COMPANY, priority 2022, published 2024).
Starred links: 1 amine or outer side, 2 acyl side, 3 side chain; linkers in the order of their positions; H or OH if unused. Positions of bridges follow the written chain, without caps; N, C: chain ends. Non-standard residues stand in square brackets, D forms with d. Residues, ends and D or L forms follow the SMILES beside them. Phe(3-CF3) = N[C@@H](Cc1cccc(C(F)(F)F)c1)C(=O)O; Phe(4-CONH2) = NC(=O)c1ccc(C[C@H](N)C(=O)O)cc1; X1 = C=CCOc1ccccc1C[C@H](N[*:1])C(=O)[*:2]; Phe(3-CN) = N#Cc1cccc(C[C@H](N)C(=O)O)c1; Phe(3-Cl) = N[C@@H](Cc1cccc(Cl)c1)C(=O)O; Phe(3-Me) = Cc1cccc(C[C@H](N)C(=O)O)c1; Phe(4-Me) = Cc1ccc(C[C@H](N)C(=O)O)cc1; Phe(2-Me) = Cc1ccccc1C[C@H](N)C(=O)O; Ahp(2) = CCCCC[C@H](N)C(=O)O; NMeNle = CCCC[C@H](NC)C(=O)O; Tle = CC(C)(C)[C@H](N)C(=O)O; NHexGly = CCCCCCNCC(=O)O; Nle = CCCC[C@H](N)C(=O)O

Target: T1, mouse VISTA (mVISTA) (Mus musculus, UniProt Q9D659)
T1 construct: expressed in transfected cells; host or cells: Human embryonic kidney 293T cells
T1 sequence (Q9D659 33-308): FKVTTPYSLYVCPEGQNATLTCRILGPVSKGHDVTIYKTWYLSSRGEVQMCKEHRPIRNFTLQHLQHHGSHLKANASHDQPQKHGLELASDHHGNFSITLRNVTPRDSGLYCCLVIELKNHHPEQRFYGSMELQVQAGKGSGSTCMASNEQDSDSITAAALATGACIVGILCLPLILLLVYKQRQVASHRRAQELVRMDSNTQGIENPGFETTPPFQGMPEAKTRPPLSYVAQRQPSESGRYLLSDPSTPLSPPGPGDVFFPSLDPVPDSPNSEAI
Assay: Cell-Based Binding High-Content Assay For mVISTA (HC CBA mVISTA)
Details: read-out: HC CBA mVISTA IC50
Method in brief: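 This high-content binding assay uses HEK293T cells expressing murine VISTA, measuring displacement of 2 nM biotinylated peptide by fluorescent streptavidin imaging. IC50 values come from four-parameter logistic fitting.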

SMILES	IC50
CCCCCCN1CC(=O)N[C@@H](Cc2ccc(O)cc2)C(=O)N[C@@H](CC(C)C)C(=O)N[C@@H](CC(N)=O)C(=O)N[C@@H](CCCNC(=N)N)C(=O)N(C)[C@@H](CCCC)C(=O)N[C@@H](CCCCC)C(=O)N2CCC[C@H]2C(=O)N[C@@H](C(C)(C)C)C(=O)N[C@@H](CO)C(=O)N[C@H](C(=O)NCC(N)=O)CSCC(=O)N[C@@H](Cc2ccccc2C)C(=O)N[C@@H](Cc2ccc(O)cc2)C(=O)N[C@@H](CC(=O)O)C1=O [compound 1205] ({CH2CO}-[Phe(2-Me)]YD[NHexGly]YLNR[NMeNle][Ahp(2)]P[Tle]SCG-NH2; thioether N-14)	0.0164 µM
C=CCOc1ccccc1C[C@@H]1NC(=O)CSC[C@@H](C(=O)NCC(N)=O)NC(=O)[C@H](CO)NC(=O)[C@H](C(C)(C)C)NC(=O)[C@@H]2CCCN2C(=O)[C@H](CCCCC)NC(=O)[C@H](CCCC)N(C)C(=O)[C@H](CCCNC(=N)N)NC(=O)[C@H](CC(N)=O)NC(=O)[C@H](CC(C)C)NC(=O)[C@H](Cc2ccc(O)cc2)NC(=O)CN(CCCCCC)C(=O)[C@H](CC(=O)O)NC(=O)[C@H](Cc2ccc(O)cc2)NC1=O [compound 1206] ({CH2CO}-[X1]YD[NHexGly]YLNR[NMeNle][Ahp(2)]P[Tle]SCG-NH2; thioether N-14)	0.0282 µM
CCCCCCN1CC(=O)N[C@@H](Cc2ccc(O)cc2)C(=O)N[C@@H](CC(C)C)C(=O)N[C@@H](CC(N)=O)C(=O)N[C@@H](CCCNC(=N)N)C(=O)N(C)[C@@H](CCCC)C(=O)N[C@@H](CCCCC)C(=O)N2CCC[C@H]2C(=O)N[C@@H](C(C)(C)C)C(=O)N[C@@H](CO)C(=O)N[C@H](C(=O)NCC(N)=O)CSCC(=O)N[C@@H](Cc2cccc(C(F)(F)F)c2)C(=O)N[C@@H](Cc2ccc(O)cc2)C(=O)N[C@@H](CC(=O)O)C1=O [compound 1207] ({CH2CO}-[Phe(3-CF3)]YD[NHexGly]YLNR[NMeNle][Ahp(2)]P[Tle]SCG-NH2; thioether N-14)	0.0245 µM
CCCCCCN1CC(=O)N[C@@H](Cc2ccc(O)cc2)C(=O)N[C@@H](CC(C)C)C(=O)N[C@@H](CC(N)=O)C(=O)N[C@@H](CCCNC(=N)N)C(=O)N(C)[C@@H](CCCC)C(=O)N[C@@H](CCCCC)C(=O)N2CCC[C@H]2C(=O)N[C@@H](C(C)C)C(=O)N[C@@H](CO)C(=O)N[C@H](C(=O)NCC(N)=O)CSCC(=O)N[C@@H](Cc2cccc(Cl)c2)C(=O)N[C@@H](Cc2ccc(O)cc2)C(=O)N[C@@H](CC(=O)O)C1=O [compound 1208] ({CH2CO}-[Phe(3-Cl)]YD[NHexGly]YLNR[NMeNle][Ahp(2)]PVSCG-NH2; thioether N-14)	0.0277 µM
CCCCCCN1CC(=O)N[C@@H](Cc2ccc(O)cc2)C(=O)N[C@@H](CC(C)C)C(=O)N[C@@H](CC(N)=O)C(=O)N[C@@H](CCCNC(=N)N)C(=O)N(C)[C@@H](CCCC)C(=O)N[C@@H](CCCCC)C(=O)N2CCC[C@H]2C(=O)N[C@@H](C(C)(C)C)C(=O)N[C@@H](CO)C(=O)N[C@H](C(=O)NCC(N)=O)CSCC(=O)N[C@@H](Cc2cccc(Cl)c2)C(=O)N[C@@H](Cc2ccc(O)cc2)C(=O)N[C@@H](CC(=O)O)C1=O [compound 1209] ({CH2CO}-[Phe(3-Cl)]YD[NHexGly]YLNR[NMeNle][Ahp(2)]P[Tle]SCG-NH2; thioether N-14)	0.0332 µM
CCCCCCN1CC(=O)N[C@@H](Cc2ccc(O)cc2)C(=O)N[C@@H](CC(C)C)C(=O)N[C@@H](CC(N)=O)C(=O)N[C@@H](CCCNC(=N)N)C(=O)N(C)[C@@H](CCCC)C(=O)N[C@@H](CCCCC)C(=O)N2CCC[C@H]2C(=O)N[C@@H](C(C)(C)C)C(=O)N[C@@H](CO)C(=O)N[C@H](C(=O)NCC(N)=O)CSCC(=O)N[C@@H](Cc2cccc(C#N)c2)C(=O)N[C@@H](Cc2ccc(O)cc2)C(=O)N[C@@H](CC(=O)O)C1=O [compound 1210] ({CH2CO}-[Phe(3-CN)]YD[NHexGly]YLNR[NMeNle][Ahp(2)]P[Tle]SCG-NH2; thioether N-14)	0.0383 µM
CCCCCCN1CC(=O)N[C@@H](Cc2ccc(O)cc2)C(=O)N[C@@H](CCCC)C(=O)N[C@@H](CC(N)=O)C(=O)N[C@@H](CCCNC(=N)N)C(=O)N(C)[C@@H](CCCC)C(=O)N[C@@H](CCCCC)C(=O)N2CCC[C@H]2C(=O)N[C@@H](C(C)C)C(=O)N[C@@H](CC(=O)O)C(=O)N[C@H](C(=O)NCC(=O)O)CSCC(=O)N[C@@H](Cc2cccc(C)c2)C(=O)N[C@@H](Cc2ccc(O)cc2)C(=O)N[C@@H](CC(=O)O)C1=O [compound 1211] ({CH2CO}-[Phe(3-Me)]YD[NHexGly]Y[Nle]NR[NMeNle][Ahp(2)]PVDCG-OH; thioether N-14)	0.0221 µM
CCCCCCN1CC(=O)N[C@@H](Cc2ccc(O)cc2)C(=O)N[C@@H](CC(C)C)C(=O)N[C@@H](CC(N)=O)C(=O)N[C@@H](CCCNC(=N)N)C(=O)N(C)[C@@H](CCCC)C(=O)N[C@@H](CCCCC)C(=O)N2CCC[C@H]2C(=O)N[C@@H](C(C)(C)C)C(=O)N[C@@H](CO)C(=O)N[C@H](C(=O)NCC(N)=O)CSCC(=O)N[C@@H](Cc2ccc(C(N)=O)cc2)C(=O)N[C@@H](Cc2ccc(O)cc2)C(=O)N[C@@H](CC(=O)O)C1=O [compound 1212] ({CH2CO}-[Phe(4-CONH2)]YD[NHexGly]YLNR[NMeNle][Ahp(2)]P[Tle]SCG-NH2; thioether N-14)	0.0131 µM
CCCCCCN1CC(=O)N[C@@H](Cc2ccc(O)cc2)C(=O)N[C@@H](CC(C)C)C(=O)N[C@@H](CC(N)=O)C(=O)N[C@@H](CCCNC(=N)N)C(=O)N(C)[C@@H](CCCC)C(=O)N[C@@H](CCCCC)C(=O)N2CCC[C@H]2C(=O)N[C@@H](C(C)C)C(=O)N[C@@H](CO)C(=O)N[C@H](C(=O)NCC(N)=O)CSCC(=O)N[C@@H](Cc2ccc(C(N)=O)cc2)C(=O)N[C@@H](Cc2ccc(O)cc2)C(=O)N[C@@H](CC(=O)O)C1=O [compound 1213] ({CH2CO}-[Phe(4-CONH2)]YD[NHexGly]YLNR[NMeNle][Ahp(2)]PVSCG-NH2; thioether N-14)	0.0271 µM
CCCCCCN1CC(=O)N[C@@H](Cc2ccc(O)cc2)C(=O)N[C@@H](CC(C)C)C(=O)N[C@@H](CC(N)=O)C(=O)N[C@@H](CCCNC(=N)N)C(=O)N(C)[C@@H](CCCC)C(=O)N[C@@H](CCCCC)C(=O)N2CCC[C@H]2C(=O)N[C@@H](C(C)C)C(=O)N[C@@H](CO)C(=O)N[C@H](C(=O)NCC(N)=O)CSCC(=O)N[C@@H](Cc2ccc(C)cc2)C(=O)N[C@@H](Cc2ccc(O)cc2)C(=O)N[C@@H](CC(=O)O)C1=O [compound 1214] ({CH2CO}-[Phe(4-Me)]YD[NHexGly]YLNR[NMeNle][Ahp(2)]PVSCG-NH2; thioether N-14)	0.0233 µM
CCCCCCN1CC(=O)N[C@@H](Cc2ccc(O)cc2)C(=O)N[C@@H](CC(C)C)C(=O)N[C@@H](CC(N)=O)C(=O)N[C@@H](CCCNC(=N)N)C(=O)N(C)[C@@H](CCCC)C(=O)N[C@@H](CCCCC)C(=O)N2CCC[C@H]2C(=O)N[C@@H](C(C)(C)C)C(=O)N[C@@H](CO)C(=O)N[C@H](C(=O)NCC(N)=O)CSCC(=O)N[C@@H](Cc2ccc(C)cc2)C(=O)N[C@@H](Cc2ccc(O)cc2)C(=O)N[C@@H](CC(=O)O)C1=O [compound 1215] ({CH2CO}-[Phe(4-Me)]YD[NHexGly]YLNR[NMeNle][Ahp(2)]P[Tle]SCG-NH2; thioether N-14)	0.0167 µM
